Values quoted from earlier work as cited in article PMC11979685, “Synthesis of Derivatives of the Antibiotic Albicidin: The N‐Terminal Fragment as Key to Control Potency and Resistance Mediated by the Binding Protein AlbA” (Chemistry (Weinheim an Der Bergstrasse, Germany), 2025).
In brackets after ≈: the same amount, converted by molar mass.

Tests used:
Design in all cases: method as in PMID 36741192
[1] = test system: E. coli BW25113; settings: already published elsewhere; cited from earlier work
[2] = test system: Salmonella typhimurium TA100; settings: already published elsewhere; cited from earlier work
[3] = test system: Bacillus subtilis DSM 10; settings: already published elsewhere; cited from earlier work
[4] = test system: Micrococcus luteus DSM 1790; settings: already published elsewhere; cited from earlier work
[5] = test system: Mycobacterium phlei DSM 750; settings: already published elsewhere; cited from earlier work
[6] = test system: E. coli; settings: E. coli in presence of 50 % human serum; already published elsewhere; cited from earlier work
[7] = molecular target: E. coli DNA gyrase (Escherichia coli, UniProt P0AES4); settings: E. coli gyrase DNA cleavage; already published elsewhere; read-out: CC50 (concentration at half-maximum cleavage); cited from earlier work
Sequence of E. coli DNA gyrase (P0AES4 whole entry): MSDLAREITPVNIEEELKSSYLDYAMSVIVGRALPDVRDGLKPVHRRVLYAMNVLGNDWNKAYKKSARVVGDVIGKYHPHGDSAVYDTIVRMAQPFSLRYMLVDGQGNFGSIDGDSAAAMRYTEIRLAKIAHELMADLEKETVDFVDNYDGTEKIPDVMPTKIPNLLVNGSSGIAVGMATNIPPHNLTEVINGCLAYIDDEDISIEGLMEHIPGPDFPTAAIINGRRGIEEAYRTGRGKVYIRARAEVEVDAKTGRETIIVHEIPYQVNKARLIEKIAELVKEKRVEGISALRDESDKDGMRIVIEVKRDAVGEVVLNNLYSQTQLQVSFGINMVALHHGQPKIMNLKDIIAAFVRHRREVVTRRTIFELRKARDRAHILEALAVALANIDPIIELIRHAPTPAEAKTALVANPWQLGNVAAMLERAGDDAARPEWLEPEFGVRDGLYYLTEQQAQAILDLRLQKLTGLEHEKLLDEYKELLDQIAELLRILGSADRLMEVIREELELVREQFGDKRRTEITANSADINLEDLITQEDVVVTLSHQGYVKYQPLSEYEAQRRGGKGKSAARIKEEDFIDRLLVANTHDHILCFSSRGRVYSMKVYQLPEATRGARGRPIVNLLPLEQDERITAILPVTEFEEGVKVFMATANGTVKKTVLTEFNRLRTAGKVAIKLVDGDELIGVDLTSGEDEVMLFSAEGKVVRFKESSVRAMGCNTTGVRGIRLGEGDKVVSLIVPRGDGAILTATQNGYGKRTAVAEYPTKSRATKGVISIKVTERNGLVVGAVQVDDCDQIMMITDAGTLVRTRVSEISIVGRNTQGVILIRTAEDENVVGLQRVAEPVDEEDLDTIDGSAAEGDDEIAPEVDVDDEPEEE

COc1c(NC(=O)c2ccc(NC(=O)c3ccc(NC(=O)[C@H](Cc4c[nH]nn4)NC(=O)c4ccc(NC(=O)c5ccc6nc(C)ccc6c5)cc4)cn3)c(OC)c2O)ccc(C(=O)O)c1O [compound 16]
MIC E. coli BW25113 [1]: 0.016 µg/mL (≈ 0.0179 µM)
MIC S. typh. [2]: ≤0.016 µg/mL
MIC B. sub. [3]: 0.063 µg/mL (≈ 0.0704 µM)
MIC M. luteus [4]: 0.063 µg/mL (≈ 0.0704 µM)
MIC M. phlei [5]: 0.5 µg/mL (≈ 0.559 µM)
MICEc 50%HS [6]: 0.5 µg/mL
CC50 [7]: 25 nM
